# Source: patent US7160908B2, “Dynamic anticancer platinum compounds” (Unitech Pharmaceuticals, Inc., priority 2003, dated 2007)
# Legend:
# Colon, HT-29 Tumor Cells = experiment: Anti-proliferative activity, alamarBlue cell viability, HT-29; assay type: cell-based, human; conditions: for Percent Growth (Mean of 2): 72-hour incubation, vehicle = 100
# Description: (§1) UTD-4-A was dissolved in 100% DMSO and then diluted with sterile distilled water to obtain initial working solutions of […] in 40% DMSO. A 100-fold dilution was further made in culture media to generate final assay concentrations of […] in 0.4% DMSO.
# (§2) Aliquots of […] of cell suspension (about 2.5×10^3/well) were placed in 96-well microtiter plates in an atmosphere of 5% CO2 at 37° C. After 24 hours, […] of growth medium and […] of test solution or vehicle (40% DMSO) were added respectively per well in duplicate for an additional 72-hour incubation.
# (§3) Thus, the final concentration of DMSO was 0.4%. The test compound, UTD-4-A, was evaluated at concentrations of […]. At the end of incubation, […] of 90% alamarBlue reagent was added to each well for another 6-hour incubation before detection of cell viability by fluorescent intensity. Fluorescent intensity was measured using a Spectraflour Plus plate reader with excitation at 530 nm and emission at 590 nm.
# [1] = test system: Ovary, OVCAR-3 Tumor Cell; experiment: Anti-proliferative activity, alamarBlue cell viability, OVCAR-3; assay type: cell-based, human; conditions: for Percent Growth (Mean of 2): 72-hour incubation, vehicle = 100
# Description: as §1, §2, §3
# [2] = concentrations between 10 and 100 μM
substance,measurement,setting,value
cis-[Pt(NH3)(NH2—CHCH3—CO—O)]Cl [UTD-4-A],Percent Growth (Mean of 2),"Colon, HT-29 Tumor Cells; 1 μM",100 ± 6
same,Percent Growth (Mean of 2),"Colon, HT-29 Tumor Cells; 10 μM",95 ± 8
same,Percent Growth (Mean of 2),"Colon, HT-29 Tumor Cells; 100 μM",41 ± 4
same,growth inhibition relative to the vehicle-treated control,"Colon, HT-29 Tumor Cells; [2]",significant growth inhibition
same,Percent Growth (Mean of 2),[1]; 1 μM,100 ± 6
same,Percent Growth (Mean of 2),[1]; 10 μM,85 ± 3
same,Percent Growth (Mean of 2),[1]; 100 μM,30 ± 3
same,growth inhibition relative to the vehicle-treated control,[1]; [2],significant growth inhibition
